Measurements published in patent US20250270213A1, “PI3Ka INHIBITORS” (Synnovation Therapeutics, Inc., priority 2022, published 2025).
pIC50: −log10 of the molar value.

Test system: T47D (PIK3CA H1047R) cells
Assay: pS473 AKT assay with 2.5% FBS, T47D cells
Assay type: cell-based
Settings: Homo sapiens, pSer473 AKT, DMEM with 2.5% FBS, 2 h treatment, read-out: T47D_IC50
Outline: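 In-cell chemiluminescent ELISA of AKT Ser473 phosphorylation, using anti-pSer473 primary and HRP secondary antibodies on fixed cells. T47D (PIK3CA H1047R) cells had 2 h of compound treatment in DMEM containing 2.5% FBS; IC50 derived from dose-response.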

| Structure (SMILES) | pIC50 |
| --- | --- |
| CNC(=O)c1ccc(-c2nc(Cl)ccc2NC(C)c2cc(C)cc3c(=O)n4c5c(cnn5CCC4)c23)cn1 (centres unmarked) [Compound 310, 6-chloro-N-methyl-3-((1-(8-methyl-6-oxo-4,5-dihydro-3H,6H-2,2a,5a-triazaaceanthrylen-10-yl)ethyl)amino)-[2,3′-bipyridine]-6′-carboxamide] | > 6.00 |
| COc1ccc(-c2nc(Cl)ccc2NC(C)c2cc(C)cc3c(=O)n4c5c(cnn5CCC4)c23)cn1 (centres unmarked) [Compound 311, 10-(1-((6-chloro-6′-methoxy-[2,3′-bipyridin]-3-yl)amino)ethyl)-8-methyl-4,5-dihydro-3H,6H-2,2a,5a-triazaaceanthrylen-6-one] | > 6.00 |
| COc1cc(-c2nc(Cl)ccc2NC(C)c2cc(C)cc3c(=O)n4c5c(cnn5CCC4)c23)ccn1 (centres unmarked) [Compound 312, 10-(1-((6-chloro-2′-methoxy-[2,4′-bipyridin]-3-yl)amino)ethyl)-8-methyl-4,5-dihydro-3H,6H-2,2a,5a-triazaaceanthrylen-6-one] | > 6.00 |
| Cc1cc(C(C)Nc2ccc(Cl)nc2-c2ccnc(N(C)C)c2)c2c(c1)c(=O)n1c3c2cnn3CCC1 (centres unmarked) [Compound 313, 10-(1-((6-chloro-2′-(dimethylamino)-[2,4′-bipyridin]-3-yl)amino)ethyl)-8-methyl-4,5-dihydro-3H,6H-2,2a,5a-triazaaceanthrylen-6-one] | > 6.00 |
| Cc1cc(C(C)Nc2ccc(Cl)nc2-c2ccc3c(c2)CN(C)C3=O)c2c(c1)c(=O)n1c3c2cnn3CCC1 (centres unmarked) [Compound 314, 10-(1-((6-chloro-2-(2-methyl-1-oxoisoindolin-5-yl)pyridin-3-yl)amino)ethyl)-8-methyl-4,5-dihydro-3H,6H-2,2a,5a-triazaaceanthrylen-6-one] | > 6.00 |
| Cc1cc(C(C)Nc2ccc(Cl)nc2-c2ccc3ncccc3c2)c2c(c1)c(=O)n1c3c2cnn3CCC1 (centres unmarked) [Compound 315, 10-(1-((6-chloro-2-(quinolin-6-yl)pyridin-3-yl)amino)ethyl)-8-methyl-4,5-dihydro-3H,6H-2,2a,5a-triazaaceanthrylen-6-one] | > 6.00 |
| Cc1cc(C(C)Nc2ccc(Cl)nc2-c2ccc3c(cnn3C)c2)c2c(c1)c(=O)n1c3c2cnn3CCC1 (centres unmarked) [Compound 316, 10-(1-((6-chloro-2-(1-methyl-1H-indazol-5-yl)pyridin-3-yl)amino)ethyl)-8-methyl-4,5-dihydro-3H,6H-2,2a,5a-triazaaceanthrylen-6-one] | > 6.00 |
| CNC(=O)c1ccc(-c2nc(C)ccc2NC(C)c2cc(C)cc3c(=O)n4c5c(cnn5CCC4)c23)cc1F (centres unmarked) [Compound 317, 2-fluoro-N-methyl-4-(6-methyl-3-((1-(8-methyl-6-oxo-4,5-dihydro-3H,6H-2,2a,5a-triazaaceanthrylen-10-yl)ethyl)amino)pyridin-2-yl)benzamide] | > 6.00 |
| Cc1cc(C(C)Nc2ccc(C)nc2-c2cnn(C3CCOCC3)c2)c2c(c1)c(=O)n1c3c2cnn3CCC1 (centres unmarked) [Compound 318, 8-methyl-10-(1-((6-methyl-2-(1-(tetrahydro-2H-pyran-4-yl)-1H-pyrazol-4-yl)pyridin-3-yl)amino)ethyl)-4,5-dihydro-3H,6H-2,2a,5a-triazaaceanthrylen-6-one] | > 6.00 |
| Cc1cc(C(C)Nc2ccc(C)nc2-c2cnn(CCO)c2)c2c(c1)c(=O)n1c3c2cnn3CCC1 (centres unmarked) [Compound 319, 10-(1-((2-(1-(2-hydroxyethyl)-1H-pyrazol-4-yl)-6-methylpyridin-3-yl)amino)ethyl)-8-methyl-4,5-dihydro-3H,6H-2,2a,5a-triazaaceanthrylen-6-one] | > 6.00 |
| Cc1cc(C(C)Nc2ccc(C)nc2-c2ccnc(C)c2)c2c(c1)c(=O)n1c3c2cnn3CCC1 (centres unmarked) [Compound 320, 10-(1-((2′,6-dimethyl-[2,4′-bipyridin]-3-yl)amino)ethyl)-8-methyl-4,5-dihydro-3H,6H-2,2a,5a-triazaaceanthrylen-6-one] | > 6.00 |
